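GI50 marks 50% less growth. TGI is the concentration that stops growth completely.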
Experiments:
Assay in all cases: DTP human tumour cell line panel, 384-well format; in the data active = GI50 below about 0.43 µM; inactive = the rest
SR leukemia = system: SR leukemia
HOP-62 NSCLC = system: HOP-62 NSCLC
OVCAR-8 ovarian = system: OVCAR-8 ovarian
CCRF-CEM leukemia = system: CCRF-CEM leukemia
IGROV1 ovarian = system: IGROV1 ovarian
HL-60(TB) leukemia = system: HL-60(TB) leukemia
UO-31 renal = system: UO-31 renal
UACC-257 melanoma = system: UACC-257 melanoma
HS 578T breast = system: HS 578T breast
MDA-MB-435 melanoma = system: MDA-MB-435 melanoma
NCI-H460 NSCLC = system: NCI-H460 NSCLC
OVCAR-4 ovarian = system: OVCAR-4 ovarian
NCI-H322M lung = system: NCI-H322M lung
OVCAR-5 ovarian = system: OVCAR-5 ovarian
NCI-H23 lung = system: NCI-H23 lung
MCF7 breast = system: MCF7 breast
DU-145 prostate = system: DU-145 prostate
CAKI-1 renal = system: CAKI-1 renal
UACC-62 melanoma = system: UACC-62 melanoma
SF-268 CNS = system: SF-268 CNS
RXF 393 renal = system: RXF 393 renal
786-0 renal = system: 786-0 renal
OVCAR-3 ovarian = system: OVCAR-3 ovarian
K-562 leukemia = system: K-562 leukemia
NCI-H522 lung = system: NCI-H522 lung
TK-10 renal = system: TK-10 renal
A498 renal = system: A498 renal
PC-3 prostate = system: PC-3 prostate
HCC-2998 colon = system: HCC-2998 colon
EKVX NSCLC = system: EKVX NSCLC
SNB-75 CNS = system: SNB-75 CNS
RPMI-8226 leukemia = system: RPMI-8226 leukemia
NCI/ADR-RES ovarian = system: NCI/ADR-RES ovarian
COLO 205 colon = system: COLO 205 colon
SN12C renal = system: SN12C renal
SNB-19 CNS = system: SNB-19 CNS
MDA-MB-231 breast = system: MDA-MB-231 breast
MOLT-4 leukemia = system: MOLT-4 leukemia
BT-549 breast = system: BT-549 breast
SK-MEL-5 melanoma = system: SK-MEL-5 melanoma
LOX IMVI melanoma = system: LOX IMVI melanoma
HOP-92 NSCLC = system: HOP-92 NSCLC
M14 melanoma = system: M14 melanoma
A549 NSCLC = system: A549 NSCLC
SF-295 CNS = system: SF-295 CNS
ACHN renal = system: ACHN renal
HCT-15 colon = system: HCT-15 colon
SF-539 CNS = system: SF-539 CNS
T-47D breast = system: T-47D breast
SK-OV-3 ovarian = system: SK-OV-3 ovarian
HT29 colon = system: HT29 colon
SK-MEL-28 melanoma = system: SK-MEL-28 melanoma
KM12 colon = system: KM12 colon
NCI-H226 lung = system: NCI-H226 lung
MALME-3M melanoma = system: MALME-3M melanoma
MDA-MB-468 breast = system: MDA-MB-468 breast
SW-620 colon = system: SW-620 colon

CC(=O)Nc1nc(C)c(-c2cc3c(c(S(C)(=O)=O)c2)C(=O)N([C@@H](C)C2CC2)C3)s1
37.3 µM: TGI (T-47D breast)
33.1 µM: TGI (MOLT-4 leukemia)
77 µM: TGI (OVCAR-4 ovarian)
54.8 µM: TGI (IGROV1 ovarian)
> 100 µM: TGI (HOP-62 NSCLC) | TGI (OVCAR-8 ovarian) | TGI (UO-31 renal) | TGI (UACC-257 melanoma) | TGI (MDA-MB-435 melanoma) | TGI (NCI-H460 NSCLC) | TGI (NCI-H322M lung) | TGI (OVCAR-5 ovarian) | TGI (NCI-H23 lung) | TGI (MCF7 breast) | TGI (DU-145 prostate) | TGI (UACC-62 melanoma) | TGI (SF-268 CNS) | TGI (RXF 393 renal) | TGI (786-0 renal) | TGI (OVCAR-3 ovarian) | TGI (K-562 leukemia) | TGI (TK-10 renal) | TGI (PC-3 prostate) | TGI (HCC-2998 colon) | TGI (EKVX NSCLC) | TGI (SNB-75 CNS) | TGI (NCI/ADR-RES ovarian) | TGI (COLO 205 colon) | TGI (SNB-19 CNS) | TGI (MDA-MB-231 breast) | TGI (BT-549 breast) | TGI (HOP-92 NSCLC) | TGI (M14 melanoma) | TGI (A549 NSCLC) | TGI (SF-295 CNS) | TGI (ACHN renal) | TGI (SF-539 CNS) | TGI (HT29 colon) | TGI (SK-MEL-28 melanoma) | TGI (KM12 colon) | TGI (NCI-H226 lung) | TGI (SW-620 colon)
33.3 µM: TGI (HL-60(TB) leukemia)
86.3 µM: TGI (LOX IMVI melanoma)
inactive: GI50 (SR leukemia) 17.3 µM | GI50 (HOP-62 NSCLC) 30.4 µM | GI50 (OVCAR-8 ovarian) 48 µM | GI50 (IGROV1 ovarian) 22.6 µM | GI50 (HL-60(TB) leukemia) 13 µM | GI50 (UO-31 renal) 31.6 µM | GI50 (UACC-257 melanoma) 27.2 µM | GI50 (HS 578T breast) 17.5 µM | GI50 (MDA-MB-435 melanoma) 54.4 µM | GI50 (NCI-H460 NSCLC) 30 µM | GI50 (OVCAR-4 ovarian) 20.8 µM | GI50 (NCI-H322M lung) 30.3 µM | GI50 (OVCAR-5 ovarian) 31.7 µM | GI50 (NCI-H23 lung) 28.7 µM | GI50 (MCF7 breast) 24.6 µM | GI50 (DU-145 prostate) 34.9 µM | GI50 (CAKI-1 renal) 25.5 µM | GI50 (UACC-62 melanoma) 29.1 µM | GI50 (SF-268 CNS) 34.7 µM | GI50 (RXF 393 renal) 30.9 µM | GI50 ([…]-0 renal) 34.7 µM | GI50 (OVCAR-3 ovarian) 26.5 µM | GI50 (K-562 leukemia) 29.1 µM | GI50 (NCI-H522 lung) 25.7 µM | GI50 (TK-10 renal) 31.8 µM | GI50 (A498 renal) 19.3 µM | GI50 (PC-3 prostate) 39.6 µM | GI50 (HCC-2998 colon) 51.3 µM | GI50 (EKVX NSCLC) 42.1 µM | GI50 (SNB-75 CNS) 28.6 µM | GI50 (RPMI-8226 leukemia) 19.9 µM | GI50 (NCI/ADR-RES ovarian) 77.4 µM | GI50 (COLO 205 colon) 38.8 µM | GI50 (SN12C renal) 25.1 µM | GI50 (SNB-19 CNS) 82.2 µM | GI50 (MDA-MB-231 breast) 22.3 µM | GI50 (MOLT-4 leukemia) 17.5 µM | GI50 (BT-549 breast) 36.9 µM | GI50 (SK-MEL-5 melanoma) 15 µM | GI50 (LOX IMVI melanoma) 28.2 µM | GI50 (HOP-92 NSCLC) 32.1 µM | GI50 (M14 melanoma) 31.7 µM | GI50 (A549 NSCLC) 33.6 µM | GI50 (SF-295 CNS) 27.9 µM | GI50 (ACHN renal) 31 µM | GI50 (HCT-15 colon) 28.6 µM | GI50 (SF-539 CNS) 31.5 µM | GI50 (T-47D breast) 6.04 µM | GI50 (SK-OV-3 ovarian) 19.3 µM | GI50 (HT29 colon) 29.8 µM | GI50 (SK-MEL-28 melanoma) 22.8 µM | GI50 (KM12 colon) 42.6 µM | GI50 (NCI-H226 lung) 35.7 µM | GI50 (MALME-3M melanoma) 14.9 µM | GI50 (MDA-MB-468 breast) 15.5 µM | GI50 (SW-620 colon) > 100 µM
51.4 µM: TGI (HS 578T breast)
57.1 µM: TGI (MALME-3M melanoma)
48.5 µM: TGI (SK-OV-3 ovarian)
77.6 µM: TGI (CAKI-1 renal)
40.8 µM: TGI (RPMI-8226 leukemia)
43.8 µM: TGI (SR leukemia)
45 µM: TGI (MDA-MB-468 breast)
91.3 µM: TGI (SN12C renal)
active: GI50 (CCRF-CEM leukemia) 0.0269 µM
11.7 µM: TGI (CCRF-CEM leukemia)
41.4 µM: TGI (SK-MEL-5 melanoma)
78.2 µM: TGI (NCI-H522 lung)
80.4 µM: TGI (A498 renal)
93.4 µM: TGI (HCT-15 colon)
